Data on 11 compounds can be found in patent US20230159527A1, “COMPOUNDS AS BCL-2 INHIBITORS” (Fochon Pharmaceuticals, Ltd., priority 2020, published 2023).

The test system of experiment [1] is Toledo cells. Put plainly: Cell proliferation assay, Toledo cells (MTS, 72 h). The settings on record: Homo sapiens, Toledo cells, MTS, read-out: Toledo IC50. It counts as cell-based. In short, it runs like this: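 Toledo cells (30000/well, RPMI-1640 with 10% FBS) were preincubated for 4 h. They were then exposed to nine compound concentrations from 10000 to 1.5 nM for 72 h at 37 °C, 5% CO2. MTS was added for 2 h and absorbance read at 490 nm to give IC50.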

Experiment [2] has as its system RS4;11-BCL-2 G101V cells. In words: Cell proliferation assay, engineered RS4;11 cells stably overexpressing BCL-2 G101V (MTS, 168 h). It counts as cell-based. The following applies: read-out: RS4, 11 BCL2- G101V. Here is the method:
MTS testing kit was purchased from Promega (Madison, Wis., USA). The RPMI-1640, Fetal bovine serum and Penicillin-Streptomycin were purchased from BI (Biological Industries, Beit Haemek, Israel). Puromycin was purchased from Beyotime (shanghai, China). Dimethyl sulfoxide (DMSO) was purchased from Sigma (St. Louis, Mo., USA). RS4;1l-BCL-2 G101V and RS4;11-BCL-2 F104L cells were cultured in RPM11640 supplemented with 1 ug/mL puromycin, 100 U/mL Penicillin-Streptomycin and 10% FBS.
To investigate whether a compound is able to inhibit the activity of BCL-2 mutation in cells, a mechanism-based assay using engineered cell lines stably overexpressing BCL-2 mutation ([…] and […]) was developed. In this assay, the inhibition of BCL-2 mutation was reflected by the inhibition of cell proliferation of RS4;11-BCL-2 G101V and RS4;11-BCL-2 F104L cells. Cells were plated into 96-well plates at optimized cell density (RS4;11-BCL-2 G101V: 5000 cells/well; RS4;11-BCL-2 F104L: 5000 cells/well). Plates were incubated at 37° C., with 5% CO2 for 4 h. Compounds were serially diluted to the final-concentrations of 10000, 3333.3, 1111.1, 370.4, 123.5, 41.2, 13.7, 4.6 and 1.4 nM and added to the plates. Plates were incubated at 37° C., with 5% CO2 for 168 h. 20 μl MTS was added into each well and the plates were incubated at 37° C., with 5% CO2 exactly for 2 h. The absorbance was measured by a microplate reader at 490 nm. IC50 values were calculated using GraphPad Prism 5.0 software.

Like-named read-outs stand apart in the source and are kept apart here.

With `CNCCOc1nc2[nH]ccc2cc1Oc1cc(N2CCC3(CC2)CC(N2CCC[C@H]2c2ccccc2C(C)C)C3)ccc1C(=O)NS(=O)(=O)c1cc2c(c([N+](=O)[O-])c1)N[C@@H]([C@H]1CC[C@](C)(O)CC1)CO2` (single isomer, unassigned) [Example D-59, N-(((S)-3-((1r,4S)-4-hydroxy-4-methylcyclohexyl)-5-nitro-3,4-dihydro-2H-benzo[b][1,4]oxazin-7-yl)sulfonyl)-4-(2-((R or S)-2-(2-isopropylphenyl)pyrrolidin-1-yl)-7-azaspiro[3.5]nonan-7-yl)-2-((6-(2-(methylamino)ethoxy)-1H-pyrrolo[2,3-b]pyridin-5-yl)oxy)benzamide], the IC50 in experiment [1] amounted to 1 nM; in experiment [2] (Homo sapiens, RS4-11, 168 h) it was 15 nM.
Take `COc1nc2[nH]ccc2cc1Oc1cc(N2CCC3(CC2)CN([C@H]2CCC[C@H]2c2ccccc2C(C)C)C3)ccc1C(=O)NS(=O)(=O)c1cc2c(c([N+](=O)[O-])c1)N[C@@H]([C@H]1CC[C@](C)(O)CC1)CO2` (single isomer, unassigned) [Example D-97, N-(((S)-3-((1r,4S)-4-hydroxy-4-methylcyclohexyl)-5-nitro-3,4-dihydro-2H-benzo[b][1,4]oxazin-7-yl)sulfonyl)-4-(2-((1S,2S or 1R,2R)-2-(2-isopropylphenyl)cyclopentyl)-2,7-diazaspiro[3.5]nonan-7-yl)-2-((6-methoxy-1H-pyrrolo [2,3-b]pyridin-5-yl)oxy)benzamide]: the IC50 is 1 nM in experiment [1] and 12 nM in experiment [2] (Homo sapiens, RS4-11, 168 h).
The matching figures for `CCOc1nc2[nH]ccc2cc1Oc1cc(N2CCC3(CC2)CN([C@H]2CCC[C@H]2c2ccccc2C(C)C)C3)ccc1C(=O)NS(=O)(=O)c1cc2c(c([N+](=O)[O-])c1)N[C@@H]([C@H]1CC[C@](C)(O)CC1)CO2` (single isomer, unassigned) [Example D-98, 2-((6-ethoxy-1H-pyrrolo[2,3-b]pyridin-5-yl)oxy)-N-((S)-3-((1r,4S)-4-hydroxy-4-methylcyclohexyl)-5-nitro-3,4-dihydro-2H-benzo[b] [1,4]oxazin-7-yl)sulfonyl)-4-(2-((1S,2S or 1R,2R)-2-(2-isopropylphenyl)cyclopentyl)-2,7-diazaspiro[3.5]nonan-7-yl)benzamide]: 1 nM and 1 nM.
Consider `CC(C)c1ccccc1[C@@H]1CCC[C@@H]1N1CC2(CCN(c3ccc(C(=O)NS(=O)(=O)c4ccc(NC[C@H]5CC[C@](C)(O)CC5)c([N+](=O)[O-])c4)c(Oc4cnc5[nH]cc(F)c5c4)c3)CC2)C1` (single isomer, unassigned) [Example D-34a, 2-((3-fluoro-1H-pyrrolo[2,3-b]pyridin-5-yl)oxy)-N-((4-((1r,4r)-4-hydroxy-4-methylcyclohexyl)methyl)amino)-3-nitrophenyl) sulfonyl)-4-(2-((1S,2S or 1R,2R)-2-(2-isopropylphenyl)cyclopentyl)-2,7-diazaspiro[3.5]nonan-7-yl)benzamide], for which the results for the IC50 in experiment [1] and in experiment [2] were 1 nM and 18 nM, respectively.
Turning to `CCOc1nc2[nH]ccc2cc1Oc1cc(N2CCC3(CC2)CN([C@H]2CCC[C@H]2c2ccccc2C(C)C)C3)ccc1C(=O)NS(=O)(=O)c1ccc(NC[C@H]2CC[C@](C)(O)CC2)c([N+](=O)[O-])c1` (single isomer, unassigned) [Example D-92, 2-((6-ethoxy-1H-pyrrolo[2,3-b]pyridin-5-yl)oxy)-N-((4-((((1r,4r)-4-hydroxy-4-methylcyclohexyl)methyl)amino)-3-nitrophenyl)sulfonyl)-4-(2-((1S,2S or 1R,2R)-2-(2-isopropylphenyl)cyclopentyl)-2,7-diazaspiro[3.5]nonan-7-yl)benzamide], the IC50 amounted to 1 nM in experiment [1] and 1 nM in experiment [2] (Homo sapiens, RS4-11, 168 h).
`COCCOc1nc2[nH]ccc2cc1Oc1cc(N2CCC3(CC2)CN([C@H]2CCC[C@H]2c2ccccc2C(C)C)C3)ccc1C(=O)NS(=O)(=O)c1cc2c(c([N+](=O)[O-])c1)N[C@@H]([C@H]1CC[C@](C)(O)CC1)CO2` (racemic) [Example D-75a, N-(((S)-3-((1r,4S)-4-hydroxy-4-methylcyclohexyl)-5-nitro-3,4-dihydro-2H-benzo[b][1,4]oxazin-7-yl)sulfonyl)-4-(2-((1S,2S and 1R,2R)-2-(2-isopropylphenyl)cyclopentyl)-2,7-diazaspiro[3.5]nonan-7-yl)-2-((6-(2-methoxyethoxy)-1H-pyrrolo[2,3-b]pyridin-5-yl)oxy) benzamide]: the IC50 came out at 1 nM in experiment [1] and 4 nM in experiment [2] (Homo sapiens, RS4-11, 168 h).
On to `CC(C)c1ccccc1[C@@H]1CCCN1C1CC2(CCN(c3ccc(C(=O)NS(=O)(=O)c4cc5c(c([N+](=O)[O-])c4)N[C@@H]([C@H]4CC[C@](C)(O)CC4)CO5)c(Oc4cc5cc[nH]c5nc4O[C@H]4CCN(C)C4)c3)CC2)C1` (single isomer, unassigned) [Example D-226, N-(((S)-3-((1r,4S)-4-hydroxy-4-methylcyclohexyl)-5-nitro-3,4-dihydro-2H-benzo[b][1,4]oxazin-7-yl)sulfonyl)-4-(2-((R or S)-2-(2-isopropylphenyl)pyrrolidin-1-yl)-7-azaspiro[3.5]nonan-7-yl)-2-((6-(((5)-1-methylpyrrolidin-3-yl)oxy)-1H-pyrrolo[2,3-b]pyridin-5-yl)oxy)benzamide], for which the IC50 in experiment [1] came out at 1 nM; in experiment [2] (Homo sapiens, RS4-11, 168 h), 13 nM.
As for `CC(C)c1ccccc1[C@@H]1CN(C(=O)C2CC2)CCN1C1CC2(CCN(c3ccc(C(=O)NS(=O)(=O)c4cc5c(c([N+](=O)[O-])c4)N[C@@H]([C@H]4CC[C@](C)(O)CC4)CO5)c(Oc4cnc5[nH]cc(F)c5c4)c3)CC2)C1` (single isomer, unassigned) [Example D-82, 4-(2-((R or S)-4-(cyclopropanecarbonyl)-2-(2-isopropylphenyl)piperazin-1-yl)-7-azaspiro[3.5]nonan-7-yl)-2-((3-fluoro-1H-pyrrolo[2,3-b]pyridin-5-yl)oxy)-N-(((S)-3-((1r,4S)-4-hydroxy-4-methylcyclohexyl)-5-nitro-3,4-dihydro-2H-benzo[b][1,4]oxazin-7-yl)sulfonyl)benzamide], the IC50 in experiment [1] was determined as 1 nM; in experiment [2] (Homo sapiens, RS4-11, 168 h), 19 nM.
The matching figures for `CC(C)c1ccccc1[C@@H]1CN(S(C)(=O)=O)CCN1C1CC2(CCN(c3ccc(C(=O)NS(=O)(=O)c4cc5c(c([N+](=O)[O-])c4)N[C@@H]([C@H]4CC[C@](C)(O)CC4)CO5)c(Oc4cnc5[nH]cc(F)c5c4)c3)CC2)C1` (single isomer, unassigned) [Example D-80, 2-((3-fluoro-1H-pyrrolo[2,3-b]pyridin-5-yl)oxy)-N-(((S)-3-((1r,4S)-4-hydroxy-4-methylcyclohexyl)-5-nitro-3,4-dihydro-2H-benzo[b] [1,4]oxazin-7-yl)sulfonyl)-4-(2-((R or S)-2-(2-isopropylphenyl)-4-(methylsulfonyl)piperazin-1-yl)-7-azaspiro[3.5]nonan-7-yl)benzamide]: 1 nM and 8 nM.
As to `CO[C@@H](C)COc1nc2[nH]ccc2cc1Oc1cc(N2CCC3(CC2)CC(N2CCC[C@H]2c2ccccc2C(C)C)C3)ccc1C(=O)NS(=O)(=O)c1cc2c(c([N+](=O)[O-])c1)N[C@@H]([C@H]1CC[C@](C)(O)CC1)CO2` (single isomer, unassigned) [Example D-202, N-(((S)-3-((1r,4S)-4-hydroxy-4-methylcyclohexyl)-5-nitro-3,4-dihydro-2H-benzo[b][1,4]oxazin-7-yl)sulfonyl)-4-(2-((R or S)-2-(2-isopropylphenyl)pyrrolidin-1-yl)-7-azaspiro[3.5]nonan-7-yl)-2-((6-((S)-2-methoxypropoxy)-1H-pyrrolo[2,3-b]pyridin-5-yl)oxy)benzamide], the IC50 in experiment [1] is 1 nM; in experiment [2] (Homo sapiens, RS4-11, 168 h) it was 2 nM.
Regarding `CC(C)c1ccccc1[C@@H]1CCC[C@@H]1N1CC2(CCN(c3ccc(C(=O)NS(=O)(=O)c4cc5c(c([N+](=O)[O-])c4)N[C@@H]([C@H]4CC[C@](C)(O)CC4)CO5)c(Oc4cc5c(F)c[nH]c5nc4Cl)c3)CC2)C1` (single isomer, unassigned) [Example D-106, 2-((6-chloro-3-fluoro-1H-pyrrolo [2,3-b]pyridin-5-yl)oxy)-N-(((S)-3-((1r,4S)-4-hydroxy-4-methylcyclohexyl)-5-nitro-3,4-dihydro-2H-benzo[b][1,4]oxazin-7-yl)sulfonyl)-4-(2-((1S,2S or 1R,2R)-2-(2-isopropylphenyl)cyclopentyl)-2,7-diazaspiro[3.5]nonan-7-yl)benzamide], the IC50 amounted to 1 nM in experiment [1] and 14 nM in experiment [2] (Homo sapiens, RS4-11, 168 h).
